Laboratory results as given in ChEMBL document CHEMBL1909046, “DrugMatrix in vitro pharmacology data”.

Key:
[1] = DRUGMATRIX: beta-Lactamase enzyme inhibition (substrate: Nitrocefin); set-up: species or system Bacillus cereus; conditions: Not Active = under 50% inhibition at 10 µM
[2] = DRUGMATRIX: Calcium Channel Type L, Dihydropyridine radioligand binding (ligand: [3H] Nitrendipine); format: cell membranes, Rattus norvegicus, Wistar, Cerebral cortex, Membrane; conditions: Not Active = under 50% inhibition at 10 µM
[3] = target: Substance-P receptor (Homo sapiens, UniProt P25103); format: cell membranes, Membrane; conditions: cho; also: in other assays of this panel Not Active means under 50% inhibition at 10 µM
Chain of Substance-P receptor (P25103 whole entry): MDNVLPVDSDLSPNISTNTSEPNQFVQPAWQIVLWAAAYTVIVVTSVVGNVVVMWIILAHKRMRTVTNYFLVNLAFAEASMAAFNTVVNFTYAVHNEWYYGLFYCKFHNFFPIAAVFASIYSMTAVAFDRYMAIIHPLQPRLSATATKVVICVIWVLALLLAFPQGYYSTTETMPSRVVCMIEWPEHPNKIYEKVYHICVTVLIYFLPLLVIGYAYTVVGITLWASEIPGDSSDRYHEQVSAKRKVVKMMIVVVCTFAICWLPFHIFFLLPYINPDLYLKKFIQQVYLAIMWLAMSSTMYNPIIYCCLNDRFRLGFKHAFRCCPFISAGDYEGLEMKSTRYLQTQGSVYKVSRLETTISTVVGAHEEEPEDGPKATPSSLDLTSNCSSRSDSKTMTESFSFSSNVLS

[4] = target: Carbonic anhydrase 2 (Homo sapiens, UniProt P00918); experiment: DRUGMATRIX: Carbonic Anhydrase II enzyme inhibition (substrate: 4-Nitrophenyl acetate (4-NPA)); format: tissue-based, Erythrocyte; conditions: erythrocyte; Not Active = under 50% inhibition at 10 µM
[5] = target: T1, Muscarinic acetylcholine receptor M2 (Homo sapiens, UniProt P08172); format: cell membranes, CHO-K1, Membrane; conditions: cho-k1; also: in other assays of this panel Not Active means under 50% inhibition at 10 µM
T1 sequence (P08172 whole entry): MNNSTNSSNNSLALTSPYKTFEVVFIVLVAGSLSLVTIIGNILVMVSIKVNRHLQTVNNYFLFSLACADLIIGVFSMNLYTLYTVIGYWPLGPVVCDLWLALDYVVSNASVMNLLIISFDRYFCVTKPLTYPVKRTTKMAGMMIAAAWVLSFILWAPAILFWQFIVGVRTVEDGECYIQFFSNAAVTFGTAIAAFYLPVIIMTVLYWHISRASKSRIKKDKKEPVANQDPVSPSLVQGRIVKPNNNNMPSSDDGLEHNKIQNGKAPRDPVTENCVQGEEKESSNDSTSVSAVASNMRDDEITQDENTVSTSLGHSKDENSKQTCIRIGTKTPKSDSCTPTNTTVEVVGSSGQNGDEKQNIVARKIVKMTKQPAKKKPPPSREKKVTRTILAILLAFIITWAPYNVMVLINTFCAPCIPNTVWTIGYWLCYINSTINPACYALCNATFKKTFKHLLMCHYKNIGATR

[6] = target: T2, Cathepsin G (Homo sapiens, UniProt P08311); experiment: biochemical; format: tissue-based, Neutrophil; conditions: neutrophil;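 also: inhibition of Cathepsin G enzyme activity, tested on an AMC-conjugated peptide substrate; in other assays of this panel Not Active means under 50% inhibition at 10 µM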
T2 sequence (P08311 whole entry): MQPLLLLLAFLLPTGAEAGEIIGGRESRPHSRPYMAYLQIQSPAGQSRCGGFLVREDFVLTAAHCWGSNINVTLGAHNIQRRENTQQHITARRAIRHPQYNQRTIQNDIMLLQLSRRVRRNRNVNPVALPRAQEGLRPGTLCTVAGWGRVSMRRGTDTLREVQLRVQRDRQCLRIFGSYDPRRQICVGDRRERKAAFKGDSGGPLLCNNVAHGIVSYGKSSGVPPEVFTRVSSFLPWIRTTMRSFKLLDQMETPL

C[C@]12CCC(=O)C[C@@H]1CC[C@@H]1[C@@H]2CC[C@]2(C)[C@@H](O)CC[C@@H]12 [STANOLONE]
Not Active: IC50 [1] | Ki [1] | IC50 [2] | Ki [2] | IC50 [3] | IC50 [4] | IC50 [5] | IC50 [6]

C1CCN2C[C@@H]3C[C@@H](CN4CCCC[C@@H]34)[C@H]2C1 [SPARTEINE]
Not Active: IC50 [1] | Ki [1] | IC50 [2] | Ki [2] | IC50 [3] | IC50 [4] | IC50 [5] | IC50 [6]

CO[C@@H]1[C@@H](OC)[C@H](C)[C@@](O)(CC(=O)O)O[C@H]1[C@H](C)[C@H]1O[C@@]2(CC[C@@](C)([C@H]3CC[C@@](C)([C@@H]4O[C@@H]([C@H]5O[C@](C)(O)[C@H](C)C[C@@H]5C)C[C@@H]4O[C@@H]4C[C@H](OC)[C@@H](OC)[C@H](C)O4)O3)O2)C[C@H](O)[C@H]1C.N [MADURAMICIN]
Not Active: IC50 [1] | Ki [1] | IC50 [2] | Ki [2] | IC50 [3] | IC50 [4] | IC50 [5] | IC50 [6]

CC(N)C12CC3CC(CC(C3)C1)C2 (stereo not given) [RIMANTADINE]
Not Active: IC50 [1] | Ki [1] | IC50 [2] | Ki [2] | IC50 [3] | IC50 [4] | IC50 [5] | IC50 [6]

CCN(CC)C(=S)SSC(=S)N(CC)CC
Not Active: IC50 [1] | Ki [1] | IC50 [2] | Ki [2] | IC50 [3] | IC50 [4] | IC50 [5] | IC50 [6]
